IC50 and inhibition data for 28 compounds are collected here from patent US8263606B2 (Xenon Pharmaceuticals Inc., priority 2008, dated 2012).

Data set [1] concerns sodium channel. Description: Guanidine influx assay (14C-guanidine radiotracer flux, in vitro). The data set is classed as cell-based, human or rat. To be noted: guanidine influx assay using a known cell line that expresses a sodium channel. The method in brief:
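Cells (human/rat Nav, endogenous or recombinant), ~100,000/well, 20-24 h 37 °C/5% CO2. Wash LNHBSS (150 mM choline Cl, HEPES, glucose). Add cpd + aconitine/14C-guanidine mix, RT. Wash, dry, scintillation count. IC50: 4-PL fit; selectivity as IC50 ratio vs reference channel, e.g. Nav1.5.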

In data set [2] the target is CYP3A4 (Homo sapiens, UniProt P08684). Kind of data set: Cytochrome P450 (CYP450) Inhibition Assay, CYP3A4 (Vivid fluorescence, BOMCC substrate). The note with it: human, P450 Baculosomes (recombinant CYP3A4), probe BOMCC (Vivid substrate).
Sequence of CYP3A4 (P08684 whole entry): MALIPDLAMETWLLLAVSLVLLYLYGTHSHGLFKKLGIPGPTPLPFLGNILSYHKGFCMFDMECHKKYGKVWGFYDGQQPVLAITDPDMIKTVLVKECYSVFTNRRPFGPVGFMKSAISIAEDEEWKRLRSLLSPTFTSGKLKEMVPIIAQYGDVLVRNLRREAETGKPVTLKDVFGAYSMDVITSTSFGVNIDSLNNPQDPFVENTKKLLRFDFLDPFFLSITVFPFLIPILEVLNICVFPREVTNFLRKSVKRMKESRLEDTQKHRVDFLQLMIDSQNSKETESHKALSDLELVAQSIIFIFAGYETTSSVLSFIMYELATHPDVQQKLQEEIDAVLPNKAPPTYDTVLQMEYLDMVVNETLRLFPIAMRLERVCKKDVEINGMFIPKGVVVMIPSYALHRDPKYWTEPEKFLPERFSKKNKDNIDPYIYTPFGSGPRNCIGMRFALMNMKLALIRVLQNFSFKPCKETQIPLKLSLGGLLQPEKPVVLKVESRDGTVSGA

Molecules are shown by their SMILES. Where a name gives a salt, the structure may show the parent alone. Bounds are passed on as bounds.

As for `COCCOCCN1C(=O)[C@@]2(COc3cc4c(cc32)OCCO4)c2ccccc21` [Example 9.70, (8S)-1′-[2-(2-methoxyethoxy)ethyl]-2,3-dihydrospiro[furo[2,3-g][1,4]benzodioxine-8,3′-indol]-2′(1′H)-one], in data set [1], the IC50 was 0.001 to 0.1 µM. In addition, in data set [2], the inhibition at 10 µM was below 50%.

As for `COCCOCCN1C(=O)C2(COc3cc(OCCOC)ccc32)c2ccccc21` (centres unmarked) [Example 9.75, 6-(2-methoxyethoxy)-1′-[2-(2-methoxyethoxy)ethyl]spiro[1-benzofuran-3,3′-indol]-2′(1′H)-one], in data set [1], the IC50 was 0.1 to 1 µM. Besides, the inhibition at 10 µM in data set [2] was below 50%.

`COCCOCCN1C(=O)C2(COc3ccc(OCCOC)cc32)c2ccccc21` (centres unmarked) [Example 9.76, 5-(2-methoxyethoxy)-1′-[2-(2-methoxyethoxy)ethyl]spiro[1-benzofuran-3,3′-indol]-2′(1′H)-one]: in data set [1], the IC50 lay in the range of 0.1 to 1 µM. Moreover, in data set [2], the inhibition at 10 µM is below 50%.

As for `O=C1N(Cc2cnc(Cl)s2)c2ccccc2C12COc1cc3c(cc12)OCO3` (centres unmarked) [Example 11, 1′-[(2-chloro-1,3-thiazol-5-yl)methyl]spiro[furo[2,3-f][1,3]benzodioxole-7,3′-indol]-2′(1′H)-one], the IC50 in data set [1] lay in the range of 0.001 to 0.1 µM. Besides, the inhibition at 10 µM in data set [2] is above 50%.

As to `O=C1N(CC2CCNCC2)c2ccccc2C12COc1cc3c(cc12)CCO3` (centres unmarked) [Example 11.5, 1-(piperidin-4-ylmethyl)-5,6-dihydrospiro[benzo[1,2-b:5,4-b′]difuran-3,3′-indol]-2′(1′H)-one], in data set [1], the IC50 was in the range of 1 to 10 µM. Moreover, in data set [2], the inhibition at 10 µM was below 50%.

In the case of `CC(C)N1CCC(CN2C(=O)C3(COc4cc5c(cc43)CCO5)c3ccccc32)CC1` (centres unmarked) [Example 11.6, 1′-{[1-(1-methylethyl)piperidin-4-yl]methyl}-5,6-dihydrospiro[benzo[1,2-b:5,4-b′]difuran-3,3′-indol]-2′(1′H)-one], the IC50 in data set [1] was 1 to 10 µM. In data set [2], the inhibition at 10 µM was above 50%.

As for `CCN1CCC(CN2C(=O)C3(COc4cc5c(cc43)CCO5)c3ccccc32)CC1` (centres unmarked) [Example 11.8, 1-[(1-ethylpiperidin-4-yl)methyl]-5,6-dihydrospiro[benzo[1,2-b:5,4-b′]difuran-3,3′-indol]-2′(1′H)-one], the IC50 in data set [1] fell in the range of 1 to 10 µM. In data set [2], the inhibition at 10 µM was above 50%.

For the compound `O=C1N(Cc2ccc(-c3ccncc3)o2)c2ccccc2C12COc1cc3c(cc12)CCO3` (centres unmarked) [Example 11.15, 1′-[(5-pyridin-4-ylfuran-2-yl)methyl]-5,6-dihydrospiro[benzo[1,2-b:5,4-b′]difuran-3,3′-indol]-2′(1′H)-one], the IC50 in data set [1] fell in the range of 0.1 to 1 µM. In data set [2], the inhibition at 10 µM was above 50%.

Turning to `O=C1N(Cc2ccc(-c3cccnc3)cc2)c2ccccc2C12COc1cc3c(cc12)CCO3` (centres unmarked) [Example 11.16, 1′-(4-pyridin-3-ylbenzyl)-5,6-dihydrospiro[benzo[1,2-b:5,4-b′]difuran-3,3′-indol]-2′(1′H)-one], in data set [1], the IC50 lay within 0.1 to 1 µM. The inhibition at 10 µM in data set [2] is above 50%.

As to `O=C1N(Cc2ccc(-c3ccccc3F)cc2)c2ccccc2C12COc1cc3c(cc12)CCO3` (centres unmarked) [Example 11.17, 1′-[(2′-fluorobiphenyl-4-yl)methyl]-5,6-dihydrospiro[benzo[1,2-b:5,4-b′]difuran-3,3′-indol]-2′(1′H)-one], the IC50 in data set [1] lay within 0.1 to 1 µM. Also, the inhibition at 10 µM in data set [2] was below 50%.

Take `O=C(O)c1ccccc1CN1C(=O)C2(COc3cc4c(cc32)CCO4)c2ccccc21` (centres unmarked) [Example 11.30, 2-[(2′-oxo-5,6-dihydrospiro[benzo[1,2-b:5,4-b′]difuran-3,3′-indol]-1′(2′H)-yl)methyl]benzoic acid]: the IC50 in data set [1] lay within 1 to 10 µM. Besides, the inhibition at 10 µM in data set [2] was below 50%.

Take `O=C(O)c1ccc(CN2C(=O)C3(COc4cc5c(cc43)CCO5)c3ccccc32)cc1` (centres unmarked) [Example 11.31, 4-[(2′-oxo-5,6-dihydrospiro[benzo[1,2-b:5,4-b′]difuran-3,3′-indol]-1′(2′H)-yl)methyl]benzoic acid]: the IC50 in data set [1] was 0.1 to 1 µM. The inhibition at 10 µM in data set [2] is below 50%.

Regarding `N#Cc1cccc2c1C1(COc3cc4c(cc31)CCO4)C(=O)N2C[C@H]1CCCO1` (stereo partly drawn) [Example 11.35, 2′-oxo-1′-[(2R)-tetrahydrofuran-2-ylmethyl]-1′,2′,5,6-tetrahydrospiro[benzo[1,2-b:5,4-b′]difuran-3,3′-indole]-4′-carbonitrile], the IC50 in data set [1] fell in the range of 0.1 to 1 µM. In addition, the inhibition at 10 µM in data set [2] is below 50%.

Take `CN(C)Cc1cccc2c1C1(COc3cc4c(cc31)CCO4)C(=O)N2C[C@H]1CCCO1` (stereo partly drawn) [Example 11.37, 4′-[(dimethylamino)methyl]-1′-[(2R)-tetrahydrofuran-2-ylmethyl]-5,6-dihydrospiro[benzo[1,2-b:5,4-b′]difuran-3,3′-indol]-2′(1′H)-one]: the IC50 in data set [1] was in the range of 1 to 10 µM. Further, the inhibition at 10 µM in data set [2] was below 50%.

Turning to `O=C1N(C[C@H]2CCCO2)c2cccc(CN3CCCC3)c2C12COc1cc3c(cc12)CCO3` (stereo partly drawn) [Example 11.38, 4′-(pyrrolidin-1-ylmethyl)-1′-[(2R)-tetrahydrofuran-2-ylmethyl]-5,6-dihydrospiro[benzo[1,2-b:5,4-b′]difuran-3,3′-indol]-2′(1′H)-one], the IC50 in data set [1] lay in the range of 1 to 10 µM. Moreover, the inhibition at 10 µM in data set [2] is below 50%.

For the compound `CN1CCOC(CN2C(=O)C3(COc4cc5c(cc43)CCO5)c3ccccc32)C1` (centres unmarked) [Example 11.41, 1′-[(4-methylmorpholin-2-yl)methyl]-5,6-dihydrospiro[benzo[1,2-b:5,4-b′]difuran-3,3′-indol]-2′(1′H)-one], the IC50 in data set [1] fell in the range of 0.1 to 1 µM. The inhibition at 10 µM in data set [2] is above 50%.

Regarding `CC(C)N1CCOC(CN2C(=O)C3(COc4cc5c(cc43)CCO5)c3ccccc32)C1` (centres unmarked) [Example 11.42, 1′-{[4-(1-methylethyl)morpholin-2-yl]methyl}-5,6-dihydrospiro[benzo[1,2-b:5,4-b′]difuran-3,3′-indol]-2′(1′H)-one], the IC50 in data set [1] lay within 1 to 10 µM. Further, in data set [2], the inhibition at 10 µM is above 50%.

Turning to `O=C1N(Cc2ccc(-c3nnn[nH]3)cc2)c2ccccc2C12COc1cc3c(cc12)CCO3` (centres unmarked) [Example 11.44, 1′-[4-(1H-tetrazol-5-yl)benzyl]-5,6-dihydrospiro[benzo[1,2-b:5,4-b′]difuran-3,3′-indol]-2′(1′H)-one], the IC50 in data set [1] lay within 1 to 10 µM. The inhibition at 10 µM in data set [2] is above 50%.

As to `O=C1N(Cc2ccc(N3CCOCC3)cc2)c2ccccc2C12COc1cc3c(cc12)CCO3` (centres unmarked) [Example 11.46, t-(4-morpholin-4-ylbenzyl)-5,6-dihydrospiro[benzo[1,2-b:5,4-b′]difuran-3,3′-indol]-2′(1′H)-one], in data set [1], the concentration for half-maximal inhibition (IC50) is 0.1 to 1 µM. In addition, the inhibition at 10 µM in data set [2] was above 50%.

As to `CS(=O)(=O)Nc1ccc2c(c1)OCC21C(=O)N(C[C@H]2CCCO2)c2ccccc21` (stereo partly drawn) [Example 11.48, N-{2′-oxo-1′-[(2R)-tetrahydrofuran-2-ylmethyl]-1′,2′-dihydrospiro[1-benzofuran-3,3′-indol]-6-yl}methanesulfonamide], the IC50 in data set [1] lay in the range of 1 to 10 µM. The inhibition at 10 µM in data set [2] was below 50%.

For `CC(C)Oc1ccc2c(c1)OCC21C(=O)N(C[C@H]2CCCO2)c2ccccc21` (stereo partly drawn) [Example 11.54, 6-(1-methylethoxy)-1′-[(2R)-tetrahydrofuran-2-ylmethyl]spiro[1-benzofuran-3,3′-indol]-2′(1′H)-one], the IC50 in data set [1] lay in the range of 0.1 to 1 µM. Moreover, in data set [2], the inhibition at 10 µM is below 50%.

Turning to `O=C1N(CC2CCNC2)c2ccccc2C12COc1cc3c(cc12)CCO3` (centres unmarked) [Example 11.61, 1′-(pyrrolidin-3-ylmethyl)-5,6-dihydrospiro[benzo[1,2-b:5,4-b′]difuran-3,3′-indol]-2′(1′H)-one], the IC50 in data set [1] lay in the range of 1 to 10 µM. The inhibition at 10 µM in data set [2] was below 50%.

Consider `CN1CCN(CN2C(=O)C3(COc4cc5c(cc43)OCO5)c3ccccc32)CC1` (centres unmarked) [Example 11.63, 1′-[(4-methylpiperazin-1-yl)methyl]spiro[furo[2,3-f][1,3]benzodioxole-7,3′-indol]-2′(1′H)-one hydrogen chloride], for which the half-inhibitory concentration (IC50) in data set [1] lay in the range of 0.001 to 0.1 µM. For the same compound, the inhibition at 10 µM in data set [2] was above 50%.

Regarding `COc1cc2c(cc1C)[C@]1(CO2)C(=O)N(CN2CCN(C)CC2)c2ccccc21` [Example 11.65, (3R)-6-methoxy-5-methyl-1′-[(4-methylpiperazin-1-yl)methyl]spiro[1-benzofuran-3,3′-indol]-2′(1′H)-one hydrogen chloride], the IC50 in data set [1] is 0.1 to 1 µM. The inhibition at 10 µM in data set [2] is above 50%.

Take `O=C1N(C[C@@H]2CCCO2)c2ccccc2[C@@]12COc1cc3c(cc12)CCO3` [Example 11.68, (3R)-1-[(2S)-tetrahydrofuran-2-ylmethyl]-5,6-dihydrospiro[benzo[1,2-b:5,4-b′]difuran-3,3′-indol]-2′(1′H)-one]: in data set [1], the IC50 was in the range of 0.001 to 0.1 µM. Further, the inhibition at 10 µM in data set [2] is above 50%.

With `CS(=O)(=O)Nc1cccc(CN2C(=O)C3(COc4cc5c(cc43)OCCO5)c3ccccc32)c1` (centres unmarked) [Example 11.94, N-{3-[(2′-oxo-2,3-dihydrospiro[furo[2,3-g][1,4]benzodioxine-8,3′-indol]-1′(2′H)-yl)methyl]phenyl}methanesulfonamide], in data set [1], the IC50 is 0.1 to 1 µM. Besides, in data set [2], the inhibition at 10 µM was above 50%.

As for `O=C1N(Cc2cccc[n+]2[O-])c2ccccc2C12COc1cc3c(cc12)OCCO3` (centres unmarked) [Example 11.95, 1′-[(1-oxidopyridin-2-yl)methyl]-2,3-dihydrospiro[furo[2,3-g][1,4]benzodioxine-8,3′-indol]-2′(1′H)-one], in data set [1], the IC50 was 0.1 to 1 µM. Also, the inhibition at 10 µM in data set [2] is below 50%.

For the compound `Nc1cccnc1CN1C(=O)C2(COc3cc4c(cc32)OCCO4)c2ccccc21` (centres unmarked) [Example 11.97, 1′-[(3-aminopyridin-2-yl)methyl]-2,3-dihydrospiro[furo[2,3-g][1,4]benzodioxine-8,3′-indol]-2′(1′H)-one hydrobromide], in data set [1], the IC50 fell in the range of 0.001 to 0.1 µM. In data set [2], the inhibition at 10 µM was above 50%.
